Test results published in ChEMBL document CHEMBL1201862, “PubChem BioAssay data set” (2004).
Activity calls are given as the source filed them.

Experiments:
[1] = target: T1, Sphingosine 1-phosphate receptor 4 (Homo sapiens, UniProt O95977); test: Fluorescence dose response cell-based high throughput screening assay for antagonists of the Sphingosine 1-Phosphate Receptor 4 (S1P4). [Related pubchem assays: 1524 (Confirmation in triplicates.), 1510 (Primary screen.)]; format: functional
T1 sequence (O95977 whole entry): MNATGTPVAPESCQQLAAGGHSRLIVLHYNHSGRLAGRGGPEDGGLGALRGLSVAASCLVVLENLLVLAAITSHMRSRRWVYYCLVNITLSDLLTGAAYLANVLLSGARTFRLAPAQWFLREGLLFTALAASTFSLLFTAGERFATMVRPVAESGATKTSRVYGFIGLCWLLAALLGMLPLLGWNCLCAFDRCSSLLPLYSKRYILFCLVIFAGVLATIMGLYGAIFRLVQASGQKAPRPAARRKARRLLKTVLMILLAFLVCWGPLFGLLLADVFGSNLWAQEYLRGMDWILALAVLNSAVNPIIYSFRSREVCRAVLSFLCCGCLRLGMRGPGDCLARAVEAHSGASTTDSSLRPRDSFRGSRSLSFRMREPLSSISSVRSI

[2] = target: Sphingosine 1-phosphate receptor 1 (Homo sapiens, UniProt P21453); format: functional;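 also: Tango beta-arrestin reporter U2OS cells stimulated with S1P near its EC80; inhibitor potency meaning antagonism of receptor activation by the natural agonist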
Exodeoxyribonuclease V = target: T2, Exodeoxyribonuclease V (Escherichia coli (strain K12), UniProt P04993+P07648+P08394); test: RecBCD inhibition via phage-restricted bacterial growth – absorbance, V66 E. coli, mutant T4 phage, counter-screen for AddAB inhibitor project, dose response (AID 492957); format: functional, cell-based, Escherichia coli str. K-12 substr. MG1655
T2 sequence (P04993 whole entry): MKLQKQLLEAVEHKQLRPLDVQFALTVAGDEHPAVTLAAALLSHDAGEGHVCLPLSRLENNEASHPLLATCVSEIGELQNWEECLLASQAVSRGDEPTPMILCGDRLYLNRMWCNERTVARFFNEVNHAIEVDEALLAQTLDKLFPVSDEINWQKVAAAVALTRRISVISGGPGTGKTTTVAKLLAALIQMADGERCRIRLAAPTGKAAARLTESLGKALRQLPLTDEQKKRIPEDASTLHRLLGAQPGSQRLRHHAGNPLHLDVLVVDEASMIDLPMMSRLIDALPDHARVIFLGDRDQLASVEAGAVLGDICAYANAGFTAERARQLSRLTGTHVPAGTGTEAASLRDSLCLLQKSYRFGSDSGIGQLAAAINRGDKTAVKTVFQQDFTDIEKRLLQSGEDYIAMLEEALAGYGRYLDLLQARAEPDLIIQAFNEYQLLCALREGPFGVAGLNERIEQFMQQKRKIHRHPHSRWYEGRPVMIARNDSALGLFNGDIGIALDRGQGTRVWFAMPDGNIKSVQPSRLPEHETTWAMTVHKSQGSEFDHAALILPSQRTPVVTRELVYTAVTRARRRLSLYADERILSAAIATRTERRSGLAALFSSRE
T2 sequence (P07648 whole entry): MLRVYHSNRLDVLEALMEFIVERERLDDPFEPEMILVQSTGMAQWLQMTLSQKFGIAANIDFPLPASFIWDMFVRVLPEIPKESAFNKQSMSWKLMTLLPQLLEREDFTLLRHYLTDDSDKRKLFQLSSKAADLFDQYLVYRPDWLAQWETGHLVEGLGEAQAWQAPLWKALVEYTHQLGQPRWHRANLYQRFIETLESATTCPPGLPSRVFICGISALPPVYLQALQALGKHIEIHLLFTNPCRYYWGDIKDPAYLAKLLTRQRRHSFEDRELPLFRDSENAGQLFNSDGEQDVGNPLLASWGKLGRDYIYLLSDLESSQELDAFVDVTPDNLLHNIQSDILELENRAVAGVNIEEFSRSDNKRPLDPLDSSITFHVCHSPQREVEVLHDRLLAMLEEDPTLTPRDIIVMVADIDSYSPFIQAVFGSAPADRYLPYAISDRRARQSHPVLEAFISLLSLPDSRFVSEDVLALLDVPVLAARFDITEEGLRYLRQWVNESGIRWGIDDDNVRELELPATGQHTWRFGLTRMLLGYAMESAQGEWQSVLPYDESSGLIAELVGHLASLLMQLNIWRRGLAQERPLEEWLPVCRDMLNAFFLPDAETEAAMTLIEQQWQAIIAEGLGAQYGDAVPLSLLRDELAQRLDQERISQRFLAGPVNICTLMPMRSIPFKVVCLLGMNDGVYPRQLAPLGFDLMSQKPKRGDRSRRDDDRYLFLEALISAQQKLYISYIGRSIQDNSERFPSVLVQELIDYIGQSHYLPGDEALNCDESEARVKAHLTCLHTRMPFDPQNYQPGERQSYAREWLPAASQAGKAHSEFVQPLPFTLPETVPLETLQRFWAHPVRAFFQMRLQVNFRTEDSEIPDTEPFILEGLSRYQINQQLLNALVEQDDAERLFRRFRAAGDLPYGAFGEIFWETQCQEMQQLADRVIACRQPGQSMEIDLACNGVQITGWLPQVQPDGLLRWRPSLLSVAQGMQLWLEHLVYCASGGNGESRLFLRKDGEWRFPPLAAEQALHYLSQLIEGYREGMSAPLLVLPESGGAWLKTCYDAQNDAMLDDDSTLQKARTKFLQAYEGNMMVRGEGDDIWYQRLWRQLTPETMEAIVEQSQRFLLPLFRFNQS
T2 sequence (P08394 whole entry): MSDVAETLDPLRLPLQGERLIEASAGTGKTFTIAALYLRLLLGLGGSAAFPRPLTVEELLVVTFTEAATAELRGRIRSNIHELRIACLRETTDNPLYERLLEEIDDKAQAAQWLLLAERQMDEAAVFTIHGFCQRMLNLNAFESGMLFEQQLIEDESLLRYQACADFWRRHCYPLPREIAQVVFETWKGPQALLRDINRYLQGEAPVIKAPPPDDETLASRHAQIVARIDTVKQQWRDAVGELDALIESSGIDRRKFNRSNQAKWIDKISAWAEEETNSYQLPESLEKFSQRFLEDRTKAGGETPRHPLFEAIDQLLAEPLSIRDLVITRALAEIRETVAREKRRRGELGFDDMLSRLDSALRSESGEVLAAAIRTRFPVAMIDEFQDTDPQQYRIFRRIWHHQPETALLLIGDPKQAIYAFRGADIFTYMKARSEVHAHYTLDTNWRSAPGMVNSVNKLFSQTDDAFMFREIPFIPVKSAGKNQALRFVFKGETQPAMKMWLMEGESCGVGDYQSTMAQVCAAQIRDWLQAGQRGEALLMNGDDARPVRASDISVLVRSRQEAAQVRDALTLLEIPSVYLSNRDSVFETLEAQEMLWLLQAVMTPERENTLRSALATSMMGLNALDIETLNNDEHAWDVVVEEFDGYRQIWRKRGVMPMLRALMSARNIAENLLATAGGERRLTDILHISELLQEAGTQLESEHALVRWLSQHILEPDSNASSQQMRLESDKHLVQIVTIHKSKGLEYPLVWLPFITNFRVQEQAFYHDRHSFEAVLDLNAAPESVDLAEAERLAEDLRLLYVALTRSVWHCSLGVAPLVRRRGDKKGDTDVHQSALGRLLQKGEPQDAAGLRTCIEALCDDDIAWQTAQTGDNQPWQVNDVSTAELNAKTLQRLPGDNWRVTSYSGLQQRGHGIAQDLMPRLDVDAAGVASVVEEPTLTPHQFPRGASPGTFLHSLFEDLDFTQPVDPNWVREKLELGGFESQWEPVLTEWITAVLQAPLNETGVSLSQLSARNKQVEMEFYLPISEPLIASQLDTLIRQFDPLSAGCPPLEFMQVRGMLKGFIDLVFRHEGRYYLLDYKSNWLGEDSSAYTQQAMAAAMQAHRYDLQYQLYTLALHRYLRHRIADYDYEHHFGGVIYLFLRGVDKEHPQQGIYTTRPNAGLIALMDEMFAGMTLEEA

Keap1/Nrf2 = Keap1/Nrf2 (Homo sapiens, UniProt Q14145); test: disruptors of Keap1 binding to Nrf2 peptide – biochemical, fluorescence polarization, cherry-picked samples, dose response (AID 588683)
Beta Lactamase [3] = target: T3, Beta Lactamase (Pseudomonas aeruginosa, UniProt Q932Y6); test: BLA reporter interference, concentration series – BLA reporter cells, FRET fluorescence, artefact control for TLR9-MyD88 binding inhibitor project, dose response (AID 588341); format: cell-based;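 also: cell based assay in CHO-K1 cells stably expressing beta-lactamase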
Beta Lactamase [4] = target: T3, Beta Lactamase; test: BLA reporter interference, concentration series – BLA reporter cells, FRET fluorescence, artefact control for NOD2-RIPK2 interaction inhibitor project, dose response (AID 651552); format: functional, cell-based
HeLa = test: viability loss in HeLa cells – cell-based, 24 h, cherry-picked samples, cytotoxicity control, dose response (AID 504726); format: functional; conditions: Homo sapiens;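 also: potency for cytotoxicity as loss of luminescence signal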
[5] = target: T4, Alkaline phosphatase, tissue-nonspecific isozyme (Homo sapiens, UniProt P05186)
T4 sequence (P05186 whole entry): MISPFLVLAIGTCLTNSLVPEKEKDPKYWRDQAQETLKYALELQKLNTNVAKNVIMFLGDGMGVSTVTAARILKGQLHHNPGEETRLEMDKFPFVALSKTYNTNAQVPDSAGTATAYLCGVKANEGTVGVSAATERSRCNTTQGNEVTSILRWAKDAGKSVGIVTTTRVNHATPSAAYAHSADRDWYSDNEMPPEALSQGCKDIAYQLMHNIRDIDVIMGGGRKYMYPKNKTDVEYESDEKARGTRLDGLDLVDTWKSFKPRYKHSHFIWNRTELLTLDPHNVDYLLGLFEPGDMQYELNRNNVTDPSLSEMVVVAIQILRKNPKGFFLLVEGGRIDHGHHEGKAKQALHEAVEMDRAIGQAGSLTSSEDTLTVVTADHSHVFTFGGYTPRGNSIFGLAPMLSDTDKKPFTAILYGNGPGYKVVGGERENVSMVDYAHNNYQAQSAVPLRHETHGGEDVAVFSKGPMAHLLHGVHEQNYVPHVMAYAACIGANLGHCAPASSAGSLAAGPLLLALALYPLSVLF

[6] = HGIII-sPLA2 enzyme inhibition potency – biochemical, QFRET, IC50, dose response (AID 743457);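 also: green fluorescence rise as the enzyme cleaves BODIPY PC-A2 in liposomes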
[7] = antiviral protection against BTV-induced cell death – arbovirus, BSR cells, confirmation (AID 1250); format: functional;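 also: protection from viral cytopathic effect measured as cell viability by ATP luminescence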
[8] = target: FAD-linked sulfhydryl oxidase ALR (Homo sapiens, UniProt P55789); test: ALR-catalysed DTT oxidation blockers – biochemical, H2O2 detection, luminescence, cherry-pick, dose response (AID 493248)
Vero = test: host cell viability loss, Vero E6 – synthesized analogs, cytotoxicity control for West Nile virus antiviral project, SAR follow-up (AID 2244); format: functional; conditions: Chlorocebus sabaeus
[9] = Counterscreen for IDE inhibitors: Luminescence-based cell-based high throughput dose response assay to identify compounds that are cytotoxic to HEK cells. [Related pubchem assays: 434962 (Primary screen (IDE inhibitors in singlicate)), 449730 (Counterscreen (Cytotoxicity in triplicate)), 435028 (Confirmation (IDE inhibitors in triplicate)) …; format: functional; conditions: HEK293
Insulin-degrading enzyme = Insulin-degrading enzyme (Homo sapiens, UniProt P14735); test: Dose Response: Fluorescence polarization-based cell-based high throughput dose response assay for inhibitors of insulin-degrading enzyme (IDE). [Related pubchem assays: 434962 (Primary screen (IDE inhibitors in singlicate)), 449730 (Counterscreen (Cytotoxicity in triplicate)), 435028 (Confirmation (IDE inhibitors in triplicate)), 434984 (Summary …; format: functional
Chain of Insulin-degrading enzyme (P14735 whole entry): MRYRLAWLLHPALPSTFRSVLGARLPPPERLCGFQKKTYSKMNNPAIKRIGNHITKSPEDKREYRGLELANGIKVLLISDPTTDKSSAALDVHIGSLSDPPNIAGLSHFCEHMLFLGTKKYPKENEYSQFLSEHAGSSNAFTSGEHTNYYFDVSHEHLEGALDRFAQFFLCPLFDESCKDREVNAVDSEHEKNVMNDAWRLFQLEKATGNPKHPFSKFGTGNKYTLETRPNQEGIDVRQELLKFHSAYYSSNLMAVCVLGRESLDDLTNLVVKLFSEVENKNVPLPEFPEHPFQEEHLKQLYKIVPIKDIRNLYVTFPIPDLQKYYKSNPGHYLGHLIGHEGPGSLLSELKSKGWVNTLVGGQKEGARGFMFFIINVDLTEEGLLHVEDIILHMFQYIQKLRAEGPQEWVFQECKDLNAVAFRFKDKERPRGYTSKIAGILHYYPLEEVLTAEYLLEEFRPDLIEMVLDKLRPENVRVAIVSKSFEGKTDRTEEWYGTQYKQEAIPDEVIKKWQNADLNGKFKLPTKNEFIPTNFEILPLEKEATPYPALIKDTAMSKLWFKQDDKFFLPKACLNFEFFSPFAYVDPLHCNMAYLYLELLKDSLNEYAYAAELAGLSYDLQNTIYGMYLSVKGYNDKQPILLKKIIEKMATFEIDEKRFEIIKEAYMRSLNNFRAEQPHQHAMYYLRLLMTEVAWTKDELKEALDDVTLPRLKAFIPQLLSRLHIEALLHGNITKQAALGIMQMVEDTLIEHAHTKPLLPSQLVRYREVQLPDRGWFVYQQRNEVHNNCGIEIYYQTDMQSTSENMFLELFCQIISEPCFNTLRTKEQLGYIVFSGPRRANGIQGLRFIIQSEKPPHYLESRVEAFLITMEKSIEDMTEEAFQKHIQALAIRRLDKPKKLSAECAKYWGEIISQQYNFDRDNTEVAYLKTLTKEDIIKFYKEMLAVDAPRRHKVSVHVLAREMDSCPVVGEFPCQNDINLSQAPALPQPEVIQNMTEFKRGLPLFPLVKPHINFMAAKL

T3 sequence (Q932Y6 whole entry): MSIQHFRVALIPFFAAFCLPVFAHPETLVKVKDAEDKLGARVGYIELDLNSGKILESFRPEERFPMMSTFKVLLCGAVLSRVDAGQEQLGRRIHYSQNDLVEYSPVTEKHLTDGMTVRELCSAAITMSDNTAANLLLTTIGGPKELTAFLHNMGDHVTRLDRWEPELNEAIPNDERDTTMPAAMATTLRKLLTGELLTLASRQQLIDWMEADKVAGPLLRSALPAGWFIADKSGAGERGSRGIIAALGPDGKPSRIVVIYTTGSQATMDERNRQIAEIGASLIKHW
Chain of Sphingosine 1-phosphate receptor 1 (P21453 whole entry): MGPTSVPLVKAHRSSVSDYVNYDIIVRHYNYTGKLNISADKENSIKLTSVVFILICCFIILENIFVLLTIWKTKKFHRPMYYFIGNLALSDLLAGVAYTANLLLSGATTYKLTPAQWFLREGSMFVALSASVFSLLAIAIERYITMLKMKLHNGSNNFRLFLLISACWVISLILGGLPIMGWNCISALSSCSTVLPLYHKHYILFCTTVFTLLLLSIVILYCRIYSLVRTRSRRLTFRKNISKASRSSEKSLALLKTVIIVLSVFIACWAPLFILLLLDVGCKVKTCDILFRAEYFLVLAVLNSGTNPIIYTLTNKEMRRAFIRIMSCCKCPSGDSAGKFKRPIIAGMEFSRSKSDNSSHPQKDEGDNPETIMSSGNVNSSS
Chain of FAD-linked sulfhydryl oxidase ALR (P55789 whole entry): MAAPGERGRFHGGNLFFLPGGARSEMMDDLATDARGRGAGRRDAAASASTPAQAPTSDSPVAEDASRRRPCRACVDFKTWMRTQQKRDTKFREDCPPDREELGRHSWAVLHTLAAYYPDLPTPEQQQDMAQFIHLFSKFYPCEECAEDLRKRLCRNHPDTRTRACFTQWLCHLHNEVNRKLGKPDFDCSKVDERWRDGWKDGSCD
Chain of Keap1/Nrf2 (Q16236 whole entry): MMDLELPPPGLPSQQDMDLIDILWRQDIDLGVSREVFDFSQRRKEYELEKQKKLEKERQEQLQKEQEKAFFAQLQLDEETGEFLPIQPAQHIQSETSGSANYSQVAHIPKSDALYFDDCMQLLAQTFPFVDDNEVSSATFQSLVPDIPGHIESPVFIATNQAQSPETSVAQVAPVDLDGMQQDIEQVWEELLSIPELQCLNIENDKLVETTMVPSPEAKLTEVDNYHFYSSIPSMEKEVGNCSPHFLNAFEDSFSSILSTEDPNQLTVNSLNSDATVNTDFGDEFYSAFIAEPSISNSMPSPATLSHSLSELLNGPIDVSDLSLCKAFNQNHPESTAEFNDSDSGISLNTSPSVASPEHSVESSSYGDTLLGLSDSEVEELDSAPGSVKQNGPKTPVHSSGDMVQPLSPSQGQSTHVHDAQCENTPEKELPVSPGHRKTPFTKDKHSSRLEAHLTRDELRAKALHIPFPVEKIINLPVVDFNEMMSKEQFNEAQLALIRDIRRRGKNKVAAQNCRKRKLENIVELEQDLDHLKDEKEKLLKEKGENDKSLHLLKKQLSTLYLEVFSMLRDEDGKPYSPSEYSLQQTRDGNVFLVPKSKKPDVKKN
Chain of Keap1/Nrf2 (Q14145 whole entry): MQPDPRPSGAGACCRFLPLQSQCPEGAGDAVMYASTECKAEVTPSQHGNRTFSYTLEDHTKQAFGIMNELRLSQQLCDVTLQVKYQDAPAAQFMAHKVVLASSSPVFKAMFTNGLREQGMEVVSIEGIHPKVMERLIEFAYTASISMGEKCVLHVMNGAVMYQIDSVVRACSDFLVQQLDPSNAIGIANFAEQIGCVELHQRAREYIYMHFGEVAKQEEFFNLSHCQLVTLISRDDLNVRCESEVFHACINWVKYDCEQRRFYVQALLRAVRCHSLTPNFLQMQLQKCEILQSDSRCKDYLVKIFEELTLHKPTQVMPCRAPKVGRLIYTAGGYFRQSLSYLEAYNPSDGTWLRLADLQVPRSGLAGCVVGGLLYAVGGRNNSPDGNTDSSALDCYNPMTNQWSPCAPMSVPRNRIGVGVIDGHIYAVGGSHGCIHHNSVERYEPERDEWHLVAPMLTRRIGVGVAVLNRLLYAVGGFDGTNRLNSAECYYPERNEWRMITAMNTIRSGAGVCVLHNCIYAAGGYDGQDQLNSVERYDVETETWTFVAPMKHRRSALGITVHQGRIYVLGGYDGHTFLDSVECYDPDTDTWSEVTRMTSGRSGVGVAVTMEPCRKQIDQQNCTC

## C=CCn1c(Sc2ncc([N+](=O)[O-])s2)n[nH]c1=O
[1]
  IC50: 2.63 µM (active)
[2]
  IC50: 18.1 µM (not active)
Exodeoxyribonuclease V
  IC50: 77.2 µM (inactive)
Keap1/Nrf2
  AC50: > 52 µM (inactive)
Beta Lactamase [3]
  IC50: > 49.8 µM (inactive)
Beta Lactamase [4]
  IC50: 42 µM (inactive)

## NNc1nc2sc3c(c2c(=O)n1C1CCCCC1)CCN(Cc1ccccc1)C3
HeLa
  AC50: 46 µM (active)

## Cc1ccc(NC(S)=NNC(=O)c2nn(C)cc2Cl)cc1
[5]
  EC50: 61 µM (not active)
[6]
  IC50: > 122 µM (inactive)

## CCN(CC)c1ccc(NC(=O)c2c(OC)cccc2OC)c(C)c1
[7]
  IC50: 23.5 µM (active)
[8]
  AC50: 0.84 µM (active)

## COc1ccc(-c2csc(NC(=O)c3ccccc3Cl)n2)cc1
Vero
  CC50: > 40 µM (active)

## O=C(N/N=C/c1cccnc1)c1cccc(NC(=O)c2cccc(Br)c2)c1
[9]
  IC50: 53.6 µM (not active)
Insulin-degrading enzyme
  IC50: 21.9 µM (not active)
